Where a SMILES comes first, the peptide text is derived from it. Bridges are numbered along the chain shown (N, C = ends). The star is where a group is joined. Propionyl = CCC(=O)*
Test system: serum calcium concentration
Experimental: Biological Assay of Calcitonin Analogs in Vivo
The biological potency of [N-alpha-Propionyl, 8-glycine, des-19-leucine] salmon calcitonin was determined by comparing the reduction of serum calcium concentration which followed administration by graded doses of [N-alpha-Propionyl, Gly^8, des-Leu^19 ]-SCT and synthetic salmon calcitonin standard. Rats were divided into four groups of seven animals, and each group was assigend at random to a dose of standard or test solution. Low and high doses were chosen from the linear portion of the dose-response curve. For the salmon calcitonin standard, the values were 0.7 and 2.1 ng. peptide/100 g. BW. Peptides were given by subcutaneous injection (0.2 ml/100 g. BW) and blood was withdrawn 1 hour later for serum calcium determination. Sera are processed and analyzed within two hours of collection.

SMILES | biological potency (rat, in vivo, sc) | biological potency of the standard, independently determined (standard salmon calcitonin used in the assay)
CCC(=O)N[C@H]1CSSC[C@@H](C(=O)NCC(=O)N[C@@H](CC(C)C)C(=O)NCC(=O)N[C@@H](CCCCN)C(=O)N[C@@H](CC(C)C)C(=O)N[C@@H](CO)C(=O)N[C@@H](CCC(N)=O)C(=O)N[C@@H](CCC(=O)O)C(=O)N[C@@H](CC(C)C)C(=O)N[C@@H](Cc2c[nH]cn2)C(=O)N[C@@H](CCCCN)C(=O)N[C@@H](CCC(N)=O)C(=O)N[C@H](C(=O)N[C@@H](Cc2ccc(O)cc2)C(=O)N2CCC[C@H]2C(=O)N[C@@H](CCCNC(=N)N)C(=O)N[C@H](C(=O)N[C@@H](CC(N)=O)C(=O)N[C@H](C(=O)NCC(=O)N[C@@H](CO)C(=O)NCC(=O)N[C@H](C(=O)N2CCC[C@H]2C(N)=O)[C@@H](C)O)[C@@H](C)O)[C@@H](C)O)[C@@H](C)O)NC(=O)[C@H]([C@@H](C)O)NC(=O)[C@H](CO)NC(=O)[C@H](CC(C)C)NC(=O)[C@H](CC(N)=O)NC(=O)[C@H](CO)NC1=O [[N alpha-propionyl, 8-glycine, des-19-leucine] salmon calcitonin] (Propionyl-CSNLSTCGLGKLSQELHKQTYPRTNTGSGTP-NH2; disulfide 1-7) | 9,700 IU/mg | 
CC(C)C[C@H](NC(=O)[C@H](CCCCN)NC(=O)CNC(=O)[C@H](CC(C)C)NC(=O)[C@@H](NC(=O)[C@@H]1CSSC[C@H](N)C(=O)N[C@@H](CO)C(=O)N[C@@H](CC(N)=O)C(=O)N[C@@H](CC(C)C)C(=O)N[C@@H](CO)C(=O)N[C@@H]([C@@H](C)O)C(=O)N1)C(C)C)C(=O)N[C@@H](CO)C(=O)N[C@@H](CCC(N)=O)C(=O)N[C@@H](CCC(=O)O)C(=O)N[C@@H](CC(C)C)C(=O)N[C@@H](Cc1c[nH]cn1)C(=O)N[C@@H](CCCCN)C(=O)N[C@@H](CC(C)C)C(=O)N[C@@H](CCC(N)=O)C(=O)N[C@H](C(=O)N[C@@H](Cc1ccc(O)cc1)C(=O)N1CCC[C@H]1C(=O)N[C@@H](CCCNC(=N)N)C(=O)N[C@H](C(=O)N[C@@H](CC(N)=O)C(=O)N[C@H](C(=O)NCC(=O)N[C@@H](CO)C(=O)NCC(=O)N[C@H](C(=O)N1CCC[C@H]1C(N)=O)[C@@H](C)O)[C@@H](C)O)[C@@H](C)O)[C@@H](C)O [standard salmon calcitonin, Salmon calcitonin] |  | greater than 4,000 IU/mg
